From PubChem BioAssay AID248 (DTP/NCI, 2004)
Where “and” joins values, the source holds several entries; their conditions need not be identical. Identical values can stand only once. Inconclusive results and toxic doses are left out.

System: L1210 leukemia ip in BDF1 mice, survival T/C
Test: NCI In Vivo Anticancer Drug Screen. Data for tumor model L1210 Leukemia (intraperitoneal) in B6D2F1 (BDF1) mice
Settings: higher = longer survival
Method in brief: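 Transplanted-tumor mice were given test agent; controls received vehicle only. Survival readings from the two groups were divided (treated over control).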

[1] = endpoint: mean survival time, dose: 100.0 mg/kg/injection, schedule: Q01DX001 (ip), vehicle: saline
[2] = endpoint: mean survival time, dose: 200.0 mg/kg/injection, schedule: Q01DX001 (ip), vehicle: saline
[3] = endpoint: mean survival time, dose: 400.0 mg/kg/injection, schedule: Q01DX001 (ip), vehicle: saline
[4] = endpoint: mean survival time, dose: 200.0 mg/kg/injection, schedule: Q04DX002 (ip), vehicle: Klucel (hydroxypropylcellulose) (HPC)
[5] = endpoint: mean survival time, dose: 400.0 mg/kg/injection, schedule: Q04DX002 (ip), vehicle: Klucel (hydroxypropylcellulose) (HPC)
[6] = endpoint: mean survival time, dose: 100.0 mg/kg/injection, schedule: Q01DX009 (ip), vehicle: Klucel (hydroxypropylcellulose) (HPC)
[7] = endpoint: mean survival time, dose: 200.0 mg/kg/injection, schedule: Q01DX009 (ip), vehicle: Klucel (hydroxypropylcellulose) (HPC)
[8] = endpoint: mean survival time, dose: 400.0 mg/kg/injection, schedule: Q01DX009 (ip), vehicle: Klucel (hydroxypropylcellulose) (HPC)
[9] = endpoint: mean survival time, dose: 100.0 mg/kg/injection, schedule: Q04DX002 (ip), vehicle: Klucel (hydroxypropylcellulose) (HPC)

In the case of `CC[C@H]1CN2CCc3cc(OC)c(OC)cc3[C@@H]2C[C@@H]1C[C@H]1NCCc2c1[nH]c1ccc(OC)cc21`, the T/C (endpoint: mean survival time, dose: 0.5 mg/kg/injection, schedule: Q01DX009 (ip), vehicle: saline) is reported as 103 % of control, the T/C (endpoint: mean survival time, dose: 1.0 mg/kg/injection, schedule: Q01DX009 (ip), vehicle: saline) is reported as 105 % of control and the T/C (endpoint: mean survival time, dose: 2.0 mg/kg/injection, schedule: Q01DX005 (ip), vehicle: saline) is reported as 113 % of control. For the same compound, the T/C (endpoint: mean survival time, dose: 2.0 mg/kg/injection, schedule: Q01DX009 (ip), vehicle: saline) was 107 % of control, the T/C (endpoint: mean survival time, dose: 2.0 mg/kg/injection, schedule: Q04DX003 (ip), vehicle: saline) was 115 % of control and the T/C (endpoint: mean survival time, dose: 4.0 mg/kg/injection, schedule: Q01DX005 (ip), vehicle: saline) was 117 % of control. The T/C (endpoint: mean survival time, dose: 4.0 mg/kg/injection, schedule: Q01DX009 (ip), vehicle: saline) was 114 % of control, the T/C (endpoint: mean survival time, dose: 4.0 mg/kg/injection, schedule: Q04DX003 (ip), vehicle: saline) was 123 % of control and the T/C (endpoint: mean survival time, dose: 8.0 mg/kg/injection, schedule: Q04DX003 (ip), vehicle: saline) was 109 % of control. For the same compound, the T/C (endpoint: mean survival time, dose: 16.0 mg/kg/injection, schedule: Q01DX009 (ip), vehicle: saline) was 117 % of control, the T/C (endpoint: mean survival time, dose: 16.0 mg/kg/injection, schedule: Q04DX003 (ip), vehicle: saline) was 124 % of control and the T/C (endpoint: mean survival time, dose: 32.0 mg/kg/injection, schedule: Q04DX003 (ip), vehicle: saline) was 152 % of control. For the same compound, the T/C (endpoint: median survival time, dose: 4.0 mg/kg/injection, schedule: Q04DX003 (ip), vehicle: saline + alcohol) was 101 % of control, the T/C (endpoint: median survival time, dose: 8.0 mg/kg/injection, schedule: Q04DX003 (ip), vehicle: saline + alcohol) was 104 % of control and the T/C (endpoint: median survival time, dose: 16.0 mg/kg/injection, schedule: Q04DX003 (ip), vehicle: saline + alcohol) was 117 % of control. The T/C (endpoint: median survival time, dose: 64.0 mg/kg/injection, schedule: Q04DX003 (ip), vehicle: saline + alcohol) was 86 % of control.

For `CN(C)c1ccc(C(C#N)=C(C#N)C#N)cc1`, the T/C (endpoint: mean survival time, dose: 100.0 mg/kg/injection, schedule: Q01DX001 (ip), vehicle: acetone) was 96 % of control, the T/C (endpoint: mean survival time, dose: 100.0 mg/kg/injection, schedule: Q01DX009 (ip), vehicle: acetone) was 97 % of control and the T/C (endpoint: mean survival time, dose: 200.0 mg/kg/injection, schedule: Q01DX001 (ip), vehicle: acetone) was 99 % of control. For the same compound, the T/C (endpoint: mean survival time, dose: 200.0 mg/kg/injection, schedule: Q01DX009 (ip), vehicle: acetone) was 97 % of control and the T/C (endpoint: mean survival time, dose: 400.0 mg/kg/injection, schedule: Q01DX001 (ip), vehicle: acetone) was 94 % of control.

For `C#CCN(CCCC)CCCC`, the T/C (endpoint: mean survival time, dose: 100.0 mg/kg/injection, schedule: Q04DX002 (ip), vehicle: saline with Tween-80) was 95 % of control and the T/C (endpoint: mean survival time, dose: 200.0 mg/kg/injection, schedule: Q04DX002 (ip), vehicle: saline with Tween-80) was 100 % of control.

With `O=C1NC(=O)C(c2ccccc2)(c2ccsc2)N1` (stereo not drawn) the T/C [1] was 95 % of control, the T/C [2] was 90 % of control and the T/C [3] was 95 % of control.

In the case of `CNCCCNCC(Cc1ccccc1)c1ccccc1` (stereo not drawn), the T/C (endpoint: mean survival time, dose: 100.0 mg/kg/injection, schedule: Q04DX002 (ip), vehicle: saline) is reported as 86 % of control.

With `S=c1nc[nH]c2c1ncn2Cc1ccc(Cl)c(Cl)c1` the T/C [4] was 94 % of control and the T/C [5] was 108 % of control.

For `O=C1OC2CC3CC2C1C3C(=O)N1CCOCC1` (stereo not drawn), the T/C (endpoint: mean survival time, dose: 100.0 mg/kg/injection, schedule: Q04DX003 (ip), vehicle: saline) was 100 % of control and 96 % of control, the T/C (endpoint: mean survival time, dose: 200.0 mg/kg/injection, schedule: Q04DX003 (ip), vehicle: saline) was 91 % of control and 98 % of control and the T/C (endpoint: mean survival time, dose: 400.0 mg/kg/injection, schedule: Q04DX003 (ip), vehicle: saline) was 100 % of control and 98 % of control.

For `O=C(C(=C(c1ccccc1)c1ccccc1)N1CCCCC1)c1ccccc1`, the T/C [1] was 96 % of control, the T/C [6] was 92 % of control and the T/C [2] was 97 % of control. The T/C [7] was 92 % of control, the T/C [3] was 97 % of control and the T/C [8] was 92 % of control.

In the case of `O=C1CCCCc2cc(O)c([N+](=O)[O-])cc21`, the T/C (endpoint: mean survival time, dose: 50.0 mg/kg/injection, schedule: Q01DX009 (ip), vehicle: saline with Tween-80) is reported as 101 % of control and the T/C (endpoint: mean survival time, dose: 100.0 mg/kg/injection, schedule: Q01DX009 (ip), vehicle: saline with Tween-80) is reported as 95 % of control.

For `CN(C)S(=O)(=O)Oc1cccc([N+](=O)[O-])c1`, the T/C (endpoint: mean survival time, dose: 25.0 mg/kg/injection, schedule: Q04DX003 (ip), vehicle: saline with Tween-80) was 100 % of control, the T/C (endpoint: mean survival time, dose: 50.0 mg/kg/injection, schedule: Q04DX003 (ip), vehicle: saline with Tween-80) was 104 % of control and the T/C (endpoint: mean survival time, dose: 100.0 mg/kg/injection, schedule: Q04DX003 (ip), vehicle: saline with Tween-80) was 100 % of control.

With `COc1cc(-c2cc(-c3ccccc3)c3ccccc3n2)cc(OC)c1OC` the T/C [6] was 97 % of control, the T/C [7] was 100 % of control and the T/C [8] was 96 % of control.

`CCC(O)CC(=O)O` (stereo not drawn) (tested in a mixture with another compound) was tested, and the T/C (endpoint: mean survival time, dose: 25.0 mg/kg/injection, schedule: Q04DX002 (ip), vehicle: Klucel (hydroxypropylcellulose) (HPC)) was 104 % of control, the T/C (endpoint: mean survival time, dose: 50.0 mg/kg/injection, schedule: Q04DX002 (ip), vehicle: Klucel (hydroxypropylcellulose) (HPC)) was 101 % of control and the T/C [9] was 101 % of control.

`Nc1nc2nc3c(nc2c(=O)[nH]1)C(=O)N(c1ccc(C(=O)O)cc1)C3` was tested, and the T/C [1] was 103 % of control and the T/C [2] was 103 % of control.

`C#CC(CC)(CC)NC(=O)NC(C)(C)C` was tested, and the T/C [9] was 98 % of control, the T/C [4] was 102 % of control and the T/C [5] was 86 % of control.

In the case of `Nc1nncs1`, the T/C (endpoint: mean survival time, dose: 3.75 mg/kg/injection, schedule: Q01DX015 (ip), vehicle: saline) is reported as 103 % of control, the T/C (endpoint: mean survival time, dose: 7.0 mg/kg/injection, schedule: Q03HX032 (ip), vehicle: saline) is reported as 107 % of control and the T/C (endpoint: mean survival time, dose: 7.5 mg/kg/injection, schedule: Q01DX015 (ip), vehicle: saline) is reported as 106 % of control. For the same compound, the T/C (endpoint: mean survival time, dose: 7.5 mg/kg/injection, schedule: Q01DX Z (ip), vehicle: carboxymethylcellulose (CMC)) was 96 % of control, the T/C (endpoint: mean survival time, dose: 11.0 mg/kg/injection, schedule: Q03HX032 (ip), vehicle: saline) was 119 % of control and the T/C (endpoint: mean survival time, dose: 12.5 mg/kg/injection, schedule: Q01DX009 (ip), vehicle: saline) was 120 % of control. For the same compound, the T/C (endpoint: mean survival time, dose: 15.0 mg/kg/injection, schedule: Q01DX015 (ip), vehicle: saline) was 109 % of control, the T/C (endpoint: mean survival time, dose: 15.0 mg/kg/injection, schedule: Q01DX Z (ip), vehicle: carboxymethylcellulose (CMC)) was 114 % of control and the T/C (endpoint: mean survival time, dose: 16.0 mg/kg/injection, schedule: Q03HX032 (ip), vehicle: saline) was 108 % of control. For the same compound, the T/C (endpoint: mean survival time, dose: 20.0 mg/kg/injection, schedule: Q01DX Z (ip), vehicle: carboxymethylcellulose (CMC)) was 116 % of control, the T/C (endpoint: mean survival time, dose: 24.0 mg/kg/injection, schedule: Q03HX032 (ip), vehicle: saline) was 124 % of control and the T/C (endpoint: mean survival time, dose: 25.0 mg/kg/injection, schedule: Q01DX009 (ip), vehicle: saline) was 106 % of control. For the same compound, the T/C (endpoint: mean survival time, dose: 25.0 mg/kg/injection, schedule: Q01DX Z (ip), vehicle: carboxymethylcellulose (CMC)) was 112 % of control, the T/C (endpoint: mean survival time, dose: 27.0 mg/kg/injection, schedule: Q01DX015 (ip), vehicle: saline) was 123 % of control and the T/C (endpoint: mean survival time, dose: 32.0 mg/kg/injection, schedule: Q01DX009 (ip), vehicle: Klucel (hydroxypropylcellulose) (HPC)) was 151 % of control. For the same compound, the T/C (endpoint: mean survival time, dose: 36.0 mg/kg/injection, schedule: Q03HX032 (ip), vehicle: saline) was 156 % of control, the T/C (endpoint: mean survival time, dose: 50.0 mg/kg/injection, schedule: Q01DX009 (ip), vehicle: saline) was 95 % of control and the T/C (endpoint: mean survival time, dose: 60.0 mg/kg/injection, schedule: Q01DX015 (ip), vehicle: saline) was 151 % of control and 165 % of control and 166 % of control. For the same compound, the T/C (endpoint: mean survival time, dose: 64.0 mg/kg/injection, schedule: Q01DX009 (ip), vehicle: Klucel (hydroxypropylcellulose) (HPC)) was 94 % of control and 112 % of control, the T/C (endpoint: mean survival time, dose: 90.0 mg/kg/injection, schedule: Q01DX015 (ip), vehicle: saline) was 168 % of control and the T/C (endpoint: mean survival time, dose: 120.0 mg/kg/injection, schedule: Q01DX015 (ip), vehicle: saline) was 171 % of control. The T/C (endpoint: mean survival time, dose: 128.0 mg/kg/injection, schedule: Q01DX009 (ip), vehicle: Klucel (hydroxypropylcellulose) (HPC)) was 88 % of control and 90 % of control, the T/C (endpoint: mean survival time, dose: 135.0 mg/kg/injection, schedule: Q01DX015 (ip), vehicle: saline) was 151 % of control and the T/C (endpoint: mean survival time, dose: 240.0 mg/kg/injection, schedule: Q01DX015 (ip), vehicle: saline) was 116 % of control. The T/C (endpoint: mean survival time, dose: 270.0 mg/kg/injection, schedule: Q01DX001 (ip), vehicle: saline) was 120 % of control, the T/C (endpoint: mean survival time, dose: 480.0 mg/kg/injection, schedule: Q01DX015 (ip), vehicle: saline) was 107 % of control and the T/C (endpoint: mean survival time, dose: 500.0 mg/kg/injection, schedule: Q04DX003 (ip), vehicle: saline) was 100 % of control. For the same compound, the T/C (endpoint: mean survival time, dose: 600.0 mg/kg/injection, schedule: Q01DX001 (ip), vehicle: saline) was 124 % of control and the T/C (endpoint: mean survival time, dose: 1000.0 mg/kg/injection, schedule: Q04DX003 (ip), vehicle: saline) was 163 % of control.
